Reference: patent publication US20150322001A1, “OMEGA-3 ANALOGUES” (The University of Sydney, priority 2012, published 2015)

Columns and labels:
MDA-MB-231 cells [1] = experiment: MTT assay, inhibition of proliferation of MDA-MB-231 cells; type: cell-based, human; conditions: Homo sapiens, MTT reduction, 24 h
Procedure: The synthesized compounds given in Table 1 were tested for their activity in inhibiting the proliferation of MDA-MB-231 cells.
• 1. Cell culture and cell treatment: Breast cancer MDA-MB-231 cells were maintained in monolayers at 37° C. in DMEM containing penicillin and streptomycin, L-glutamine and 10% fetal bovine serum in an atmosphere of 95% air and 5% CO2. Cells were seeded into multi-well plates at 5×10^4 cells/mL; media was replaced 24 h later with fresh serum-free DMEM containing one of the test compounds in DMSO. DMSO was added to control cells at a final concentration of 0.1%. • 2. MTT assay: MDA-MB-231 cells were seeded in 96 well plates (0.2 mL/well), treated with compounds at 0.01, 0.1, 0.5, 1, 5 and 10 μM for 24 h. MTT (25 μL of 2.5 mg/mL solution) was added to each well for 2 h, after which MTT and media were removed. The blue formazan product formed from MTT by live cells was dissolved in DMSO (100 μL/well) and quantified spectrophotometrically at 540 nm in a multilabel counter. IC50s were calculated using GraphPad Prism (Prism 5.01). • 3. Caspase 3 activity: MDA-MB-231 cells were seeded in 96 well plates (0.2 mL/well), and were treated with compounds at 0.1, 0.5 and 1 μM for 24 h. Caspase 3 activity was quantified using the Caspase-Glo 3/7 assay kit according to manufacturer's protocol (Promega). Briefly, after 24 h treatment, fresh serum-free media was added to wells. Cells were equilibrated at room temperature for 30 min, caspase 3/7 substrate in lysis buffer was added and the luminescence was measured. Relative caspase 3/7 activity was calculated as [(luminescence in treatment−luminescence in control)/luminescence in control×100%]. • 4. Annexin V assay: MDA-MB-231 cells were seeded in 6 well plates (3 mL/well), and were treated with compounds at 0.1, 0.5 and 1 μM for 24 h. The apoptotic cells were quantified by Annexin V staining according to the manufacture's protocol (BD Biosciences). Briefly, after 24 h treatment, the media and harvested cells were collected, followed by PBS washes. Cells were stained with Annexin V and PI in binding buffer for 15 min at room temperature and quantified by flow cytometry (BD Biosciences). The apoptotic cells (%) were calculated as [(Annexin V positive cells in treatment−Annexin V positive cells in control)/Annexin V positive cells in control×100%]. • 5. Matrigel assay: MDA-MB-231 cells were trypsinized and resuspended in serum-free DMEM media (3.5×10^6 cells/mL). The cell suspension was mixed 1:1 with Matrigel solution (Bio Scientific). Aliquots (20 μL containing 3.5×10^4 cells) were placed into 6-well tissue-culture dishes to form well-defined droplets and incubated at 37° C. for 5 min to enable semi-solidification. Migration media was freshly made as DMEM containing 20% fetal bovine serum, epidermal growth factor 10 pg/mL, hydrocortisone 0.4 ng/mL, vascular endothelial growth factor (VEGF, 1 pg/mL), basic fibroblast growth factor (bFGF, 20 pg/mL), insulin-like growth factor-1 (40 pg/mL), ascorbic acid (2 ng/mL) and heparin (45 ng/mL). Compounds were added in migration media (3 mL/well) and plates were then incubated for 24 h. Cells that migrated out of droplets were scored using phase-contrast microscopy and digital image analysis (Olympus). • 6. Real-time RT PCR: Cell droplets from migration assays were collected, and total RNA was extracted using Tri Reagent (Astral Scientific) according to the manufacturer's protocol. RNA samples were treated with DNase (Promega) and gene expression was quantified using an Express Onestep Superscript qRT-PCT kit (Invitrogen) and gene-specific primers: heparanase (forward) […] and (reverse) GCAGCAACTTTGGCATTTC, integrin-α3 (forward) […] and (reverse) […], actin (forward) […] and (reverse) […]. The cycling conditions (Roto-Gene™ 6000; Corbett Research) were as follows: 95° C. (15 min); 40 cycles of denaturation (95° C., 30 s); annealing (60° C., 1 min); elongation (72° C., 1 min). […]

MDA-MB-231 cells [2] = experiment: Caspase 3 activity (Caspase-Glo 3/7) in MDA-MB-231 cells; type: cell-based, human; conditions: 0.1 μM, FIG. 1
Procedure: (§1) • 1. Cell culture and cell treatment: Breast cancer MDA-MB-231 cells were maintained in monolayers at 37° C. in DMEM containing penicillin and streptomycin, L-glutamine and 10% fetal bovine serum in an atmosphere of 95% air and 5% CO2. Cells were seeded into multi-well plates at 5×10^4 cells/mL; media was replaced 24 h later with fresh serum-free DMEM containing one of the test compounds in DMSO. DMSO was added to control cells at a final concentration of 0.1%. • 2. MTT assay: MDA-MB-231 cells were seeded in 96 well plates (0.2 mL/well), treated with compounds at 0.01, 0.1, 0.5, 1, 5 and 10 μM for 24 h. […] The blue formazan product formed from MTT by live cells was dissolved in DMSO (100 μL/well) and quantified spectrophotometrically at 540 nm in a multilabel counter. IC50s were calculated using GraphPad Prism (Prism 5.01). • 3. […] Caspase 3 activity was quantified using the Caspase-Glo 3/7 assay kit according to manufacturer's protocol (Promega). […] Cells were equilibrated at room temperature for 30 min, caspase 3/7 substrate in lysis buffer was added and the luminescence was measured. Relative caspase 3/7 activity was calculated as [(luminescence in treatment−luminescence in control)/luminescence in control×100%]. • 4. […] The apoptotic cells were quantified by Annexin V staining according to the manufacture's protocol (BD Biosciences). […]

MDA-MB-231 cells [3] = experiment: Annexin V assay (apoptotic cells) in MDA-MB-231 cells; type: cell-based, human; conditions: FIG. 2
Procedure: as §1

MDA-MB-231 cells [4] = experiment: Matrigel assay, migration of MDA-MB-231 cells out of matrigel droplets; type: cell-based, human
Procedure: This supports the finding that these compounds are effective against metastatic cancer cells.
(§2) • 1. Cell culture and cell treatment: Breast cancer MDA-MB-231 cells were maintained in monolayers at 37° C. in DMEM containing penicillin and streptomycin, L-glutamine and 10% fetal bovine serum in an atmosphere of 95% air and 5% CO2. Cells were seeded into multi-well plates at 5×10^4 cells/mL; media was replaced 24 h later with fresh serum-free DMEM containing one of the test compounds in DMSO. DMSO was added to control cells at a final concentration of 0.1%. • 2. MTT assay: MDA-MB-231 cells were seeded in 96 well plates (0.2 mL/well), treated with compounds at 0.01, 0.1, 0.5, 1, 5 and 10 μM for 24 h. […] The blue formazan product formed from MTT by live cells was dissolved in DMSO (100 μL/well) and quantified spectrophotometrically at 540 nm in a multilabel counter. IC50s were calculated using GraphPad Prism (Prism 5.01). • 3. […] Caspase 3 activity was quantified using the Caspase-Glo 3/7 assay kit according to manufacturer's protocol (Promega). […] Cells were equilibrated at room temperature for 30 min, caspase 3/7 substrate in lysis buffer was added and the luminescence was measured. Relative caspase 3/7 activity was calculated as [(luminescence in treatment−luminescence in control)/luminescence in control×100%]. • 4. […]

MDA-MB-468 cells = experiment: MTT reduction in MDA-MB-468 cells; type: cell-based; conditions: compared with MDA-MB-231
MCF-7 cells = experiment: MTT reduction in MCF-7 cells; type: cell-based; conditions: compared with MDA-MB-231
Procedure: These are also breast cancer cell lines, but are less aggressive than the MDA-MD-231 cells.
as §2

| IC50 (MDA-MB-231 cells [1]) | IC50 (MDA-MB-231 cells [4]; Homo sapiens, MDA-MB-231, matrigel assay, read-out: IC50 (concentration at which migration is inhibited to 50% of control)) | SMILES | caspase-3 activity (MDA-MB-231 cells [2]) | Annexin V staining (early apoptosis) (MDA-MB-231 cells [3]) | inhibition of MTT reduction (MDA-MB-468 cells) | inhibition of MTT reduction (MCF-7 cells) | migration of cells in the matrigel assay (MDA-MB-231 cells [4]; 10 μM) |
| --- | --- | --- | --- | --- | --- | --- | --- |
| 750 nM | 3800 nM | Cc1ccc(NC(=O)NCCCCCCCCCCCCCCCC(=O)O)cc1 [Compound 16, 16-{[(4-methylphenyl)carbamoyl]amino}hexadecanoic acid] | particularly good | increases this substantially |  |  |  |
| 1800 nM |  | CCNC(=O)NCCCCCCCCCCCCCCCC(=O)O [Compound 19, 16-[(ethylcarbamoyl)amino]hexadecanoic acid] |  |  | inhibited MTT reduction | inhibited MTT reduction | 61±5 % of control |
